Measured values reported in patent publication US4701448A, “Metal salt of organic phosphate and an antihyperlipemic agent containing the same” (Asahi Denka Kogyo Kabushiki Kaisha, priority 1985, dated 1987).
Where a name gives a salt, the structure may show the parent alone.

What was measured:
[1] = test system: serum cholesterol; experiment: Serum cholesterol lowering activity, oral, rabbit, 5 successive days; type: in vivo; conditions: two times a day, 5 days
Description: (1) Serum cholesterol lowering activity the metal salt of organic phosphate according to the present invention was orally administered to a rabbit (body weight of about 3 Kg) two times a day (at 9:00 a.m. and 4:00 p.m.) for 5 successive days. After 5 days, blood was sampled and the total cholesterol value in serum was measured in a conventional manner.

[2] = Water solubility, hygroscopic property and stability (statements in words); type: physicochemical
[3] = Acute toxicity, rat; type: in vivo; conditions: in vivo
Source text: (§1) The acute toxicity of the metal salt of CB3A and of CK3A was examined by orally or peritoneally administrating an aqueous solution or dispersion thereof the results are shown in Table 2.
(§2) a . . . per os (oral administration)
(§3) b . . . intraperitoneal injection

[4] = Acute toxicity, mouse; type: in vivo; conditions: in vivo
Source text: as §1, §2, §3

[5] = Stability, 5 weeks at 45° C. and humidity of 80% (HPLC remaining rate); type: physicochemical; conditions: after 5 weeks, humidity of 80%; for Remaining rate: 50400 min; for remaining at 840 h: solid, 80% humidity
Description: One gram each of CB3A, CK3A and various metal salts thereof was placed in a beaker and the beaker was allowed to stand for 5 weeks in a constant temperature and humidity bath controlled at a temperature of 45° C. and a humidity of 80%. After 5 weeks, a remaining rate of the compound was analyzed quantitatively with a high performance liquid chromatography "Tri rotar" manufactured by Nippon Bunko K. K. (Japan).
A0 = initial amount of the compound prior to standing in the constan
temperature and humidity bath
A1 = final amount of the compound after 5 weeks

[6] = test system: rat; experiment: Acute toxicity, rat; type: in vivo
Source text: as §1, §2, §3

[7] = test system: mouse; experiment: Acute toxicity, mouse; type: in vivo
Source text: as §1, §2, §3

[8] = test system: synthesis of cholesterol; conditions: in words; Japanese Patent Application No. 165490/1983, J. Antibiotics 38, 328-332 (1985); cited from earlier work
[9] = Absorbability and effect (statement in words)

Row | Compound | Total Serum cholesterol lowering rate ([1]; 1.5 mg/kg/day) | Total Serum cholesterol lowering rate ([1]; 6 mg/kg/day) | stability [2] | water solubility [2] | hygroscopic property [2] | Remaining rate [5] | LD50 ([6]; intraperitoneal injection) | LD50 ([6]; per os (oral administration)) | LD50 ([7]; intraperitoneal injection) | LD50 ([7]; per os (oral administration)) | also measured
1 | CCC(C)C(=O)OC1CCC=C2C=CC(C)C(CCC(CC(O)CC(=O)O)OP(=O)(O)O)C21 (centres unmarked) [CB3A-2K salt, Dipotassium salt of CB3A] | 19.1% | 34.2% | excellent | excellent |  |  |  |  |  |  | 
2 | CCC(C)C(=O)OC1CC(C)C=C2C=CC(C)C(CCC(CC(O)CC(=O)O)OP(=O)(O)O)C21 (centres unmarked) [CK3A-1.5Ba salt, Sesquibarium salt of CK3A] | 21.1% | 36.6% | particularly excellent |  | no hygroscopic property |  |  |  |  |  | 
3 | CCC(C)C(=O)OC1CCC=C2C=CC(C)C(CCC(CC(O)CC(=O)OC)OP(=O)(O)O)C21 (centres unmarked) [CB3A methyl ester-Ca salt, Calcium salt of CB3A methyl ester] | 23.0% | 40.6% | particularly excellent |  | no hygroscopic property |  |  |  |  |  | 
4 | CCC(C)C(=O)OC1CCC=C2C=CC(C)C(CCC(CC(O)CC(=O)O)OP(=O)(O)O)C21 (centres unmarked) [CB3A-3K salt, Tripotassium salt of CB3A] | 19.4% | 33.9% | excellent | excellent |  |  |  |  |  |  | LD50 ([3]; ip, intraperitoneal injection): > 500 mg/kg; LD50 ([3]; per os (oral administration)): > 2000 mg/kg; LD50 ([4]; ip, intraperitoneal injection): > 500 mg/kg; LD50 ([4]; per os (oral administration)): > 2000 mg/kg
5 | CCC(C)C(=O)OC1CCC=C2C=CC(C)C(CCC(CC(O)CC(=O)O)OP(=O)(O)O)C21 (centres unmarked) [CB3A-1K salt, Monopotassium salt of CB3A] | 19.6% | 33.7% | excellent | excellent |  |  |  |  |  |  | 
6 | CCC(C)C(=O)OC1CCC=C2C=CC(C)C(CCC(CC(O)CC(=O)O)OP(=O)(O)O)C21 (centres unmarked) [CB3A-3Na salt, Trisodium salt of CB3A] | 18.5% | 34.3% | excellent | excellent |  | 82% | > 500 mg/kg | > 2000 mg/kg | > 500 mg/kg | > 2000 mg/kg | 
7 | CCC(C)C(=O)OC1CC(C)C=C2C=CC(C)C(CCC(CC(O)CC(=O)O)OP(=O)(O)O)C21 (centres unmarked) [CK3A-3K salt, Tripotassium salt of CK3A] | 18.9% | 34.7% | excellent | excellent |  | 85% |  |  |  |  | LD50 ([3]; ip, intraperitoneal injection): > 500 mg/kg; LD50 ([3]; per os (oral administration)): > 2000 mg/kg; LD50 ([4]; ip, intraperitoneal injection): > 500 mg/kg; LD50 ([4]; per os (oral administration)): > 2000 mg/kg
8 | CCC(C)C(=O)OC1CC(C)C=C2C=CC(C)C(CCC(CC(O)CC(=O)OC)OP(=O)(O)O)C21 (centres unmarked) [CK3A methyl ester-2K salt, Dipotassium salt of CK3A methyl ester] | 18.7% | 34.7% | excellent | excellent |  |  |  |  |  |  | remaining at 840 h [5]: 83%
9 | CCC(C)C(=O)OC1CC(C)C=C2C=CC(C)C(CCC(CC(O)CC(=O)OC)OP(=O)(O)O)C21 (centres unmarked) [CK3A methyl ester-Ca salt, Calcium salt of CK3A methyl ester] | 24.9% | 39.2% | particularly excellent |  | no hygroscopic property |  |  |  |  |  | 
10 | CCC(C)C(=O)OC1CCC=C2C=CC(C)C(CCC(CC(O)CC(=O)O)OP(=O)(O)O)C21 (centres unmarked) [CB3A-1Na salt] |  |  |  |  |  | 74% |  |  |  |  | 
11 | CCC(C)C(=O)OC1CCC=C2C=CC(C)C(CCC(CC(O)CC(=O)O)OP(=O)(O)O)C21 (centres unmarked) [CB3A-1.5Ca salt, Sesquicalcium salt of CB3A] | 23.2% | 40.2% | particularly excellent |  | no hygroscopic property | 97% | > 500 mg/kg | > 2000 mg/kg | > 500 mg/kg | > 2000 mg/kg | 
12 | CCC(C)C(=O)OC1CC(C)C=C2C=CC(C)C(CCC(CC(O)CC(=O)O)OP(=O)(O)O)C21 (centres unmarked) [CK3A-1.5Mg salt] | 22.1% | 36.3% |  |  |  |  |  |  |  |  | 
13 | CCC(C)C(=O)OC1CC(C)C=C2C=CC(C)C(CCC(CC(O)CC(=O)O)OP(=O)(O)O)C21 (centres unmarked) [CK3A-1.5Ca salt, Sesquicalcium salt of CK3A] | 24.5% | 39.9% | particularly excellent |  | no hygroscopic property | 96% | > 500 mg/kg | > 2000 mg/kg | > 500 mg/kg | > 2000 mg/kg | 
14 | CCC(C)C(=O)OC1CCC=C2C=CC(C)C(CCC(CC(O)CC(=O)O)OP(=O)(O)O)C21 (centres unmarked) [CB3A-1.5Ba salt, Sesquibarium salt of CB3A] | 21.3% | 36.6% | particularly excellent |  | no hygroscopic property |  |  |  |  |  | 
15 | CCC(C)C(=O)OC1CC(C)C=C2C=CC(C)C(CCC(CC(O)CC(=O)O)OP(=O)(O)O)C21 (centres unmarked) [CK3A-3Na salt, Trisodium salt of CK3A] | 17.1% | 30.0% | excellent | excellent |  |  | > 500 mg/kg | > 2000 mg/kg | > 500 mg/kg | > 2000 mg/kg | 
16 | CCC(C)C(=O)OC1CCC=C2C=CC(C)C(CCC(CC(O)CC(=O)OC)OP(=O)(O)O)C21 (centres unmarked) [CB3A methyl ester] |  |  |  |  |  |  |  |  |  |  | activity of inhibiting the synthesis of cholesterol [8]: strong activity of inhibiting the synthesis of cholesterol
17 | CCC(C)C(=O)OC1CCC=C2C=CC(C)C(CCC(CC(O)CC(=O)O)OP(=O)(O)O)C21 (centres unmarked) [CB3A-1.5Mg salt] | 21.1% | 36.3% |  |  |  |  |  |  |  |  | 
18 | CCC(C)C(=O)OC1CCC=C2C=CC(C)C(CCC(CC(O)CC(=O)O)OP(=O)(O)O)C21 (centres unmarked) [CB3A-2Na salt] |  |  |  |  |  | 78% |  |  |  |  | 
19 | CCC(C)C(=O)OC1CCC=C2C=CC(C)C(CCC(CC(O)CC(=O)OC)OP(=O)(O)O)C21 (centres unmarked) [CB3A methyl ester-2K salt, Dipotassium salt of CB3A methyl ester] | 19.5% | 33.8% | excellent | excellent |  |  |  |  |  |  | remaining at 840 h [5]: 84%
20 | CCC(C)C(=O)OC1CC(C)C=C2C=CC(C)C(CCC(CC(O)CC(=O)OC)OP(=O)(O)O)C21 (centres unmarked) [CK3A methyl ester] |  |  |  |  |  |  |  |  |  |  | activity of inhibiting the synthesis of cholesterol [8]: strong activity of inhibiting the synthesis of cholesterol
21 | CCC(C)C(=O)OC1CC(C)C=C2C=CC(C)C(CCC(CC(O)CC(=O)O)OP(=O)(O)O)C21 (centres unmarked) [CK3A-Al salt, Aluminum salt of CK3A] | 23.4% | 41.6% | particularly excellent |  | no hygroscopic property | 98% | > 500 mg/kg | > 2000 mg/kg | > 500 mg/kg | > 2000 mg/kg | 
22 | CCC(C)C(=O)OC1CC(C)C=C2C=CC(C)C(CCC(CC(O)CC(=O)O)OP(=O)(O)O)C21 (centres unmarked) [CK3A, reference compound] | 9.7% | 24.4% | unstable |  |  | 13% | > 500 mg/kg | > 2000 mg/kg | > 500 mg/kg | > 2000 mg/kg | absorbability and effect [9]: unsatisfactory; activity of inhibiting the synthesis of cholesterol [8]: strong activity of inhibiting the synthesis of cholesterol
23 | CCC(C)C(=O)OC1CCC=C2C=CC(C)C(CCC(CC(O)CC(=O)O)OP(=O)(O)O)C21 (centres unmarked) [CB3A-Al salt, Aluminum salt of CB3A] | 24.2% | 41.6% | particularly excellent |  | no hydroscopic property | 98% | > 500 mg/kg | > 2000 mg/kg | > 500 mg/kg | > 2000 mg/kg | 
